Earlier results, collected in patent US9089619B2, “Hybrid nanocrystals for treatment and bioimaging of disease” (University of Kentucky, priority 2005, dated 2015).

Conditions: water at 25° C.

- solubility in water: about 1.6 μg/ml
SMILES: Nc1nc2ncc(CNc3ccc(C(=O)N[C@@H](CCC(=O)O)C(=O)O)cc3)nc2c(=O)[nH]1 [Folic acid]
